{"source": "patent US12194024B2", "about": "“Pharmaceutical composition of MDM2 inhibitor and use thereof for preventing and/or treating disease” (ASCENTAGE PHARMA (SUZHOU) CO., LTD., priority 2019, dated 2025)", "key": {"NCI-H460": {"tested_on": "NCI-H460", "experiment": "CTG cell proliferation experiment, NSCLC", "format": "cell-based", "settings": "Homo sapiens; NCI-H460, STK11 and KRAS co-mutated; 72 hours", "description": "(§1) For the combined experiment, the final volume of 2 test substances is 5 μl/well.\n(§2) The nonlinear regression data analysis method of Graphpad Prism 6.0 software ([…]) is used for calculating IC50.\n(§3) For the combined experiment, the average fluorescence value of the 3 repeated wells of the single drug control is normalized for calculating cell survival rate."}, "A549": {"tested_on": "A549", "experiment": "CTG cell proliferation experiment, NSCLC", "format": "cell-based", "settings": "Homo sapiens; A549, STK11 and KRAS co-mutated; 72 hours", "description": "as §1, §2, §3"}, "NCI-H2122": {"tested_on": "NCI-H2122", "experiment": "CTG cell proliferation experiment, NSCLC", "format": "cell-based", "settings": "Homo sapiens; NCI-H2122, STK11 and KRAS co-mutated; 72 hours", "description": "as §1, §2, §3"}, "[1]": {"tested_on": "human A375 cutaneous melanoma xenograft tumor", "experiment": "Subcutaneous A375 cutaneous melanoma xenograft model", "format": "in vivo, BALB/c Nude mice", "from_the_text": "The subcutaneous xenograft tumor model of human tumor immuno-deficient mice is established by the cell inoculation method (reference can be made to Gould S E et al., Translational value of mouse models in oncology drug development, Nature medicine, 2015 21, 431-439, and Souers A J et al., ABT-199, a potent and selective BCL-2 inhibitor, achieves antitumor activity while sparing platelets, Nature medicine, 2012 19.202-208): tumor cells at logarithmic phase are collected, then are resuspended in 1×PBS after being counted, the concentration of the cell suspension is adjusted to 2.5-5×10^7/mL. Tumor cells are subcutaneously inoculated to right-side back of the immuno-deficient mice using a 1 mL syringe (4th needle) at 5-10×10^6/0.2 mL/mouse (experimental animals are purchased from Beijing Vital River Laboratory Animal Technology Co., Ltd. SCXK (Beijing) 2016-0006). All the experimental operations of animals strictly abide by the usage and management standard of experimental animals of GenePharma Co., Ltd. and Suzhou Yasheng Pharmaceutical Co., Ltd. The calculations of related parameters make reference to “Technical guidelines for non-clinical research of cytotoxic anti-tumor drugs” of China CFDA.\nThe tumor diameter is measured twice using a vernier caliper each week. The computational formula of the tumor volume (TV) is: TV=a×b^2/2. In the computational formula, a and b represent the length and width of the tumor measurement respectively. The computational formula of the relative tumor volume (RTV) is: RTV=VtN1. In the computational formula, V1 is the tumor volume when being grouped and administered, and Vt is the tumor volume when being measured at a certain day after the administration.\nThe evaluation index of the anti-tumor activity is the relative tumor proliferation rate T/C (%), and the computational formulae respectively are: the relative tumor proliferation rate T/C (%)=(TRTV/CRTV)×100%, TRTV is the RTV of the treatment groups, and CRTV is the RTV of the vehicle control groups. The tumor remission rate (%) is derived by dividing the number of SD (Stable Disease), PR (Partial response) and CR (Complete response) appearing in the tumor bearing mice after treatment by the total number of mice in the group×100%. […]"}, "MOLM-13 cells": {"tested_on": "MOLM-13 cells", "experiment": "Annexin V-FITC/PI apoptosis by flow cytometer", "format": "cell-based, human", "settings": "48 hours", "from_the_text": "The activation of P53 signaling pathway can induce apoptosis, cycle arrest, or senility of cells. […] Therefore, Annexin V-PI fluorescence probe and flow cytometer are used for analyzing the apoptosis of MOML-13 cells after being treated with compound 2 alone or in combination with Decitabine, Azacitidine or Cytarabine (Ara-C)."}}, "data": [{"smiles": "CCN1[C@@H](C(=O)NC23CCC(C(=O)O)(CC2)CC3)[C@H](c2cccc(Cl)c2F)[C@]2(C(=O)Nc3cc(Cl)ccc32)C12CCCCC2", "note": "[Compound 2]", "values": [{"measurement": "IC50", "setting": "NCI-H460", "value": 330, "unit": "nM"}, {"measurement": "IC50", "setting": "A549", "value": 33, "unit": "nM"}, {"measurement": "IC50", "setting": "NCI-H2122", "value": 79, "unit": "nM"}, {"measurement": "T/C (%) @ D18", "setting": "[1]; Compound 2 50 mg/kg PO QD × 7D, Trametinib 1 mg/kg, Dabrafenib 30 mg/kg PO QD × 21D", "value": 58.25, "unit": "%"}, {"measurement": "RTV @ D18 (Mean ± SEM)", "setting": "[1]; Compound 2 50 mg/kg PO QD × 7D, Trametinib 1 mg/kg, Dabrafenib 30 mg/kg PO QD × 21D, vehicle 17.36 ± 1.33", "value": "10.11 ± 1.83"}, {"measurement": "DCR (%)", "setting": "[1]; disease control rate, CR, PR or SD by mRECIST", "value": 0, "unit": "%"}, {"measurement": "ORR (%)", "setting": "[1]; objective response rate, CR or PR by mRECIST", "value": 0, "unit": "%"}, {"measurement": "MOLM-13 cells being apoptotic (Annexin V+ cells)", "setting": "MOLM-13 cells; 40 nM", "value": "about 31.0%"}, {"measurement": "MOLM-13 cells being apoptotic (Annexin V+ cells)", "setting": "MOLM-13 cells; 110 nM", "value": "~55.1", "unit": "%"}, {"measurement": "MOLM-13 cells being apoptotic (Annexin V+ cells)", "setting": "MOLM-13 cells; 1000 nM", "value": "~96.8", "unit": "%"}]}]}
